Test system: kidney tissue of g-ddY mice
Assay: RNA-seq differential gene expression in kidney tissue of g-ddY mice
Format: in vivo, mouse
Method: RNA isolation and sequencing libraries were generated using standard protocols. Sequencing was performed using an Illumina NextSeq500 using manufacturer's instructions with a read length of 75 bp and a read depth of 30 million. Raw data was assembled to FASTQ files. Following QC analysis, high quality sequencing reads (e.g., reads with a Phred quality score >36) were aligned to the mouse reference genome (GRCm38-mm10) using the default parameters of the align algorithm and transcript count tables of each library was generated using the default parameters of the featureCounts algorithm of the RSubread package (Liao Y, Smyth GK, Shi W, 2019). High quality sequencing reads mapped to 27,129 genes. Following additional QC of low count filtering (i.e. transcripts <10 counts across all samples), 16,207 genes were identified and used for further analysis. The remaining sequencing read counts of the included 16,207 genes were normalized to library size, log-transformed, and were quantified as counts per million (CPM). Select RNA-seq counts were validated using qPCR. Sequencing read counts (CPM) were used for identification of differential gene expression between specified populations using the quasi-likelihood methodology of the edgeR package. […] MA plots were generated using edgeR. Heatmaps and other plots were generated using the gplots and ggplot2 package.

[1] = 10 mg/kg/day vs control, IL6 signaling
[2] = 10 mg/kg/day vs control, NF-kB signaling
[3] = 10 mg/kg/day vs control, PDGF signaling
[4] = 10 mg/kg/day vs control, cell proliferation signaling
[5] = 10 mg/kg/day vs control, inflammatory response signaling
[6] = 10 mg/kg/day vs control, mesangial cell signature
[7] = 20 mg/kg/day vs control, IL6 signaling
[8] = 20 mg/kg/day vs control, NF-kB signaling
[9] = 20 mg/kg/day vs control, PDGF signaling
[10] = 20 mg/kg/day vs control, cell proliferation signaling

CCCCN(CCCC)C(=O)CN1C[C@H](c2ccc3c(c2)OCO3)[C@@H](C(=O)O)[C@@H]1c1ccc(OC)cc1 [atrasentan, (2R,3R,4S)-4-(1,3-benzodioxol-5-yl)-1-[2-(dibutylamino)-2-oxoethyl]-2-(4-methoxyphenyl)pyrrolidine-3-carboxylic acid]
Cntfr logFC [1]: −0.8669 | Csf1 logFC [1]: −0.8332 | Il1b logFC [1]: −1.684 | Il1r1 logFC [1]: −0.2988 | Il2ra logFC [1]: −0.8599 | Map3k8 logFC [1]: −0.3558 | Ackr3 logFC [2]: 0.2851 | Atf3 logFC [2]: −1.514 | Btg1 logFC [2]: −0.3745 | Btg2 logFC [2]: −0.424 | Ccl20 logFC [2]: −1.273 | Ccnd1 logFC [2]: 0.453 | Cdkn1a logFC [2]: 0.5583 | Csf1 logFC [2]: −0.8332 | Cxcl2 logFC [2]: −1.19 | Dnajb4 logFC [2]: −0.3683 | Edn1 logFC [2]: −1.006 | Efna1 logFC [2]: 0.6938 | Ehd1 logFC [2]: 0.2563 | F3 logFC [2]: −0.4963 | Fosl2 logFC [2]: −0.8662 | Id2 logFC [2]: 0.1663 | Ifit2 logFC [2]: −0.471 | Il1b logFC [2]: −1.684 | Jag1 logFC [2]: −0.4199 | Klf2 logFC [2]: −0.4894 | Klf4 logFC [2]: −0.5493 | Map3k8 logFC [2]: −0.3558 | Nfat5 logFC [2]: −0.3118 | Nfkb1 logFC [2]: −0.3424 | Nfkbia logFC [2]: −0.5525 | Nr4a2 logFC [2]: −1.3802 | Nr4a3 logFC [2]: −1.143 | Per1 logFC [2]: −0.4162 | Pfkfb3 logFC [2]: −1.166 | Pnrcl logFC [2]: 0.2635 | Rel logFC [2]: −0.7218 | Rhob logFC [2]: −0.533 | Serpine1 logFC [2]: −0.7169 | Snn logFC [2]: 0.3517 | Spsb1 logFC [2]: −0.6157 | Tnfaip8 logFC [2]: 0.273 | Traf1 logFC [2]: −0.5182 | Trib1 logFC [2]: −0.6481 | Zbtb10 logFC [2]: −0.2335 | Hras logFC [3]: 0.1887 | Map3k1 logFC [3]: −0.3825 | Nfkb1 logFC [3]: −0.3424 | Nfkbia logFC [3]: −0.5525 | Pdgfb logFC [3]: −0.3414 | Pdgfra logFC [3]: −0.51 | Pik3cg logFC [3]: −0.5882 | Pik3r1 logFC [3]: −0.4253 | Pla2g4a logFC [3]: −0.6999 | Tiam1 logFC [3]: −0.7456 | Arid4a logFC [4]: −0.2777 | Atrx logFC [4]: −0.2463 | Bcar1 logFC [4]: 0.3379 | Ccdc88a logFC [4]: −0.5602 | Ccnd1 logFC [4]: 0.453 | Cep192 logFC [4]: −0.4211 | Cntrl logFC [4]: −0.289 | Dmd logFC [4]: −0.3335 | Epb41l2 logFC [4]: −0.4376 | Fgd6 logFC [4]: −0.2369 | Flna logFC [4]: −0.4162 | Itsn1 logFC [4]: −0.2276 | Kmt5a logFC [4]: 0.2601 | Meis1 logFC [4]: −0.2507 | Myh9 logFC [4]: −0.2093 | Myh10 logFC [4]: −0.3068 | Myo1e logFC [4]: −0.2349 | Nin logFC [4]: −0.3393 | Ophn1 logFC [4]: −0.4999 | Rapgef5 logFC [4]: −0.2732 | Rhot2 logFC [4]: 0.4727 | Slc7a1 logFC [4]: −0.396 | Slc12a2 logFC [4]: −0.2507 | Slc38a1 logFC [4]: −0.4971 | Smc3 logFC [4]: −0.2304 | Sorbs2 logFC [4]: −0.3958 | Tiam1 logFC [4]: −0.7456 | Tuba4a logFC [4]: 0.2738 | Vcl logFC [4]: −0.2001 | Ythdc1 logFC [4]: −0.1936 | Btg2 logFC [5]: −0.424 | Ccl20 logFC [5]: −1.273 | Cdkn1a logFC [5]: 0.5583 | Chst2 logFC [5]: −0.5212 | Csf1 logFC [5]: −0.8332 | Edn1 logFC [5]: −1.006 | Eif2ak2 logFC [5]: −0.272 | F3 logFC [5]: −0.4963 | Gabbr1 logFC [5]: −0.02473 | Hpn logFC [5]: 0.4007 | Il1b logFC [5]: −1.684 | Il1r1 logFC [5]: −0.2988 | Ly6e logFC [5]: 0.1666 | Nfkb1 logFC [5]: −0.3424 | Nfkbia logFC [5]: −0.5525 | Rnf144b logFC [5]: −0.7108 | Ros1 logFC [5]: −2.078 | Serpine1 logFC [5]: −0.7169 | Slc4a4 logFC [5]: 0.5123 | Slc7a1 logFC [5]: −0.396 | Slc7a2 logFC [5]: −0.8315 | Slc11a2 logFC [5]: 0.3192 | Ahnak logFC [6]: −0.5756 | Akap12 logFC [6]: −0.2687 | Akt3 logFC [6]: −0.3863 | Aldob logFC [6]: 0.4194 | Ankrd12 logFC [6]: −0.2824 | C7 logFC [6]: −0.7767 | Cald1 logFC [6]: −0.3719 | Cblb logFC [6]: −0.082 | Ebf1 logFC [6]: −0.3301 | Epb41l2 logFC [6]: −0.4375 | Ets1 logFC [6]: −0.2198 | Fchsd2 logFC [6]: −0.2564 | Frmd4a logFC [6]: −0.2838 | Gata3 logFC [6]: −0.4822 | Gpx3 logFC [6]: 0.6802 | Igfbp7 logFC [6]: 0.2052 | Lama2 logFC [6]: −0.2955 | Maml2 logFC [6]: −0.2318 | Meis1 logFC [6]: −0.2507 | Myh9 logFC [6]: −0.2094 | Myo1e logFC [6]: −0.2349 | Nbea logFC [6]: −0.2819 | Nfkbia logFC [6]: −0.5525 | Piezo2 logFC [6]: −0.4078 | Postn logFC [6]: −1.385 | Pparg logFC [6]: −0.6129 | Ppp1r12a logFC [6]: −0.1995 | Prkg1 logFC [6]: −0.2187 | Psd3 logFC [6]: −0.3544 | Ptprm logFC [6]: −0.2614 | Rapgef5 logFC [6]: −0.2732 | Raph1 logFC [6]: −0.2965 | Rbms3 logFC [6]: −0.5749 | Robo1 logFC [6]: −0.4803 | Stard13 logFC [6]: −0.7224 | Tacc1 logFC [6]: −0.2449 | Tcf4 logFC [6]: −0.2176 | Tjp1 logFC [6]: −0.2489 | Tns3 logFC [6]: −0.2638 | Unc5c logFC [6]: 0.5618 | Utrn logFC [6]: −0.49 | Cntfr logFC [7]: −0.8574 | Csf1 logFC [7]: −1.089 | Il1r1 logFC [7]: −0.8263 | Il2ra logFC [7]: −0.959 | Map3k8 logFC [7]: −0.8222 | Ackr3 logFC [8]: 0.4917 | Atf3 logFC [8]: −2.107 | Btg1 logFC [8]: −0.5187 | Btg2 logFC [8]: −0.6974 | Ccn1 logFC [8]: −1.087 | Ccnd1 logFC [8]: 0.644 | Cdkn1a logFC [8]: 0.2546 | Csf1 logFC [8]: −1.089 | Cxcl2 logFC [8]: −2.5772 | Dnajb4 logFC [8]: −0.3548 | Edn1 logFC [8]: −1.328 | Efna1 logFC [8]: 0.286 | Ehd1 logFC [8]: 0.2715 | F3 logFC [8]: −0.5235 | Fosl2 logFC [8]: −1.122 | Gem logFC [8]: −1.237 | Id2 logFC [8]: 0.2228 | Ifit2 logFC [8]: −0.6323 | Jag1 logFC [8]: −0.3939 | Klf2 logFC [8]: −0.4816 | Klf4 logFC [8]: −0.904 | Map3k8 logFC [8]: −0.8222 | Nfat5 logFC [8]: −0.323 | Nfkb1 logFC [8]: −0.616 | Nfkbia logFC [8]: −0.7041 | Nr4a1 logFC [8]: −1.621 | Nr4a2 logFC [8]: −1.111 | Nr4a3 logFC [8]: −1.113 | Per1 logFC [8]: −0.1216 | Pfkfb3 logFC [8]: −1.125 | Pnrcl logFC [8]: 0.04156 | Rel logFC [8]: −1.0782 | Rhob logFC [8]: −0.5419 | Serpine1 logFC [8]: −1.501 | Snn logFC [8]: 0.4753 | Spsb1 logFC [8]: −0.654 | Tnfaip8 logFC [8]: 0.4 | Traf1 logFC [8]: −1.485 | Trib1 logFC [8]: −0.7668 | Zbtb10 logFC [8]: −0.2586 | Hras logFC [9]: 0.06802 | Map3k1 logFC [9]: −0.7203 | Nfkb1 logFC [9]: −0.616 | Nfkbia logFC [9]: −0.7041 | Pdgfb logFC [9]: −0.8375 | Pdgfra logFC [9]: −0.658 | Pik3cg logFC [9]: −1.096 | Pik3r1 logFC [9]: −0.4284 | Pla2g4a logFC [9]: −0.8381 | Tiam1 logFC [9]: −0.9494 | Arid4a logFC [10]: −0.196 | Atrx logFC [10]: −0.2188 | Bcar1 logFC [10]: 0.346 | Ccdc88a logFC [10]: −0.6374 | Ccnd1 logFC [10]: 0.644 | Cep192 logFC [10]: −0.4173 | Cntrl logFC [10]: −0.3963 | Dmd logFC [10]: −0.3485 | Epb41l2 logFC [10]: −0.6149 | Fgd6 logFC [10]: −0.3419 | Flna logFC [10]: −0.7842 | Itsn1 logFC [10]: −0.2752 | Kmt5a logFC [10]: 0.2873 | Meis1 logFC [10]: −0.3593 | Myh9 logFC [10]: −0.4543 | Myh10 logFC [10]: −0.1801 | Myo1e logFC [10]: −0.292 | Nin logFC [10]: −0.4236 | Ophn1 logFC [10]: −0.7587

Reference: patent publication US20220304978A1, “INHIBITING MESANGIAL CELL ACTIVATION” (Chinook Therapeutics, Inc., priority 2019, published 2022)
